For 25 compounds, IC50 and melting point results are on record in US7425551B2, “Malonamide derivatives” (Hoffmann-La Roche Inc., priority 2006, dated 2008).

Data set [1] has as its target T1, γ-secretase (Homo sapiens, UniProt P49768).
T1 construct: uses a HEK293 membrane fraction as a source of γ-secretase; endogenous in cells; host or cells: HEK293 (microsomal membrane fraction, solubilised in 0.25% CHAPSO)
The data set is described as follows: in vitro assay of γ-secretase activity (HEK293 membrane fraction, recombinant APP substrate, Abeta ELISA). The format is biochemical. The note with it: γ-secretase inhibition; HEK293 membrane fraction solubilized in 0.25% CHAPSO, recombinant human APP C-terminal 100 amino acids substrate, Abeta detected by ELISA. Summed up:
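The microsomal fraction of HEK293 cells was solubilized in 0.25% CHAPSO and incubated with a His-tagged C-terminal 100-residue human APP fragment expressed in E. coli. Abeta peptides produced by cleavage were quantified by specific ELISA.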
(In general: ELISA stands for enzyme-linked immunosorbent assay.)

Each structure is given as a SMILES string. Several values for one entry are separate records, joined by “and”; a condition that tells them apart may be missing. Equal entries are not always repeated.

Broadly, the IC50 is the concentration at which inhibition is half-maximal. Broadly, the melting point is the temperature of the solid-liquid transition. In the case of `C[C@H](OC(=O)NCCC(F)(F)C(F)(F)F)C(=O)N[C@@H]1C(=O)N(CCO)c2ccccc2-c2ccccc21` [Example 38, (3,3,4,4,4-Pentafluoro-butyl)-carbamic acid (S)-1-[(S)-5-(2-hydroxy-ethyl)-6-oxo-6,7-dihydro-5H-dibenzo[b,d]azepin-7-ylcarbamoyl]-ethyl ester], the melting point lay within 181 to 184 °C. The IC50 in data set [1] amounted to 12 nM. In the case of `CCOC(C(=O)NCC(F)(F)C(F)(F)F)C(=O)N[C@@H]1C(=O)N(CCO)c2ccccc2-c2ccccc21` (single isomer, unassigned; epimer b) [Example 19, [R or S]2-Ethoxy-N—[(S)-5-(2-hydroxy-ethyl)-6-oxo-6,7-dihydro-5H-dibenzo[b,d]azepin-7-yl]-N′-(2,2,3,3,3-pentafluoro-propyl)-malonamide, epimer B], in data set [1], the IC50 was determined as 4 nM. As for `C[C@H](OC(=O)NCCC(F)(F)F)C(=O)N[C@@H]1C(=O)N(CCO)c2ccccc2-c2ccccc21` [Example 39, (3,3,3-Trifluoro-propyl)-carbamic acid (S)-1-[(S)-5-(2-hydroxy-ethyl)-6-oxo-6,7-dihydro-5H-dibenzo[b,d]azepin-7-ylcarbamoyl]-ethyl ester], the IC50 in data set [1] was found to be 16 nM.

As to `CCOC(C(=O)NCC(F)(F)C(F)(F)F)C(=O)N[C@@H]1C(=O)N(CCO)c2ccccc2-c2ccccc21` (stereo partly drawn) [Example 17, 2-Ethoxy-N—[(S)-5-(2-hydroxy-ethyl)-6-oxo-6,7-dihydro-5H-dibenzo[b,d]azepin-7-yl]-N′-(2,2,3,3,3-pentafluoro-propyl)-malonamide], in data set [1], the IC50 was 4 nM. As to `CC(O)(C(=O)NCC(F)(F)C(F)(F)F)C(=O)N[C@@H]1C(=O)N(CCO)c2ccccc2-c2ccccc21` (stereo partly drawn) [Example 15, 2-Hydroxy-N—[(S)-5-(2-hydroxy-ethyl)-6-oxo-6,7-dihydro-5H-dibenzo[b,d]azepin-7-yl]-2-methyl-N′-(2,2,3,3,3-pentafluoro-propyl)-malonamide], the IC50 in data set [1] is 1 nM. For `CC(O)(C(=O)NCCC(F)(F)F)C(=O)N[C@@H]1C(=O)N(CCO)c2ccccc2-c2ccccc21` (stereo partly drawn) [Example 64, 2-Hydroxy-N—[(S)-5-(2-hydroxy-ethyl)-6-oxo-6,7-dihydro-5H-dibenzo[b,d]azepin-7-yl]-2-methyl-N′-(3,3,3-trifluoro-propyl)-malonamide], the melting point was 61 to 69 °C and 59 to 62 °C and 64 to 71 °C. For the same compound, the IC50 in data set [1] turned out to be 10 nM. Turning to `O=C(CC(=O)N[C@@H]1C(=O)N(CCOCc2ccccc2)c2ccccc2-c2ccccc21)NCCC(F)(F)F` [Example 28, N—[(S)-5-(2-Benzyloxy-ethyl)-6-oxo-6,7-dihydro-5H-dibenzo[b,d]azepin-7-yl]-N′-(3,3,3-trifluoro-propyl)-malonamide], the IC50 in data set [1] came to 68 nM. The same measure, in the same setting: the value for `COCCN1C(=O)[C@@H](NC(=O)[C@](C)(F)C(=O)NCC(F)(F)C(F)(F)F)c2ccccc2-c2ccccc21` [Example 33, (R)-2-Fluoro-N—[(S)-5-(2-methoxy-ethyl)-6-oxo-6,7-dihydro-5H-dibenzo[b,d]azepin-7-yl]-2-methyl-N′-(2,2,3,3,3-pentafluoro-propyl)-malonamide] was 4 nM; that for `CC(O)(C(=O)NCCC(F)(F)F)C(=O)N[C@@H]1C(=O)N(CCOCc2ccccc2)c2ccccc2-c2ccccc21` (stereo partly drawn) [Example 63, N—[(S)-5-(2-Benzyloxy-ethyl)-6-oxo-6,7-dihydro-5H-dibenzo[b,d]azepin-7-yl]-2-hydroxy-2-methyl-N′-(3,3,3-trifluoro-propyl)-malonamide] was 2 nM. Turning to `C[C@H](OC(=O)NCC(F)(F)C(F)(F)F)C(=O)N[C@@H]1C(=O)N(CCO)c2ccccc2-c2ccccc21` [Example 8, (2,2,3,3,3-Pentafluoro-propyl)-carbamic acid (S)-1-[(S)-5-(2-hydroxy-ethyl)-6-oxo-6,7-dihydro-5H-dibenzo[b,d]azepin-7-ylcarbamoyl]-ethyl ester], in data set [1], the IC50 was determined as 6 nM. Same read-out and setting: the figure for `O=C(CC(=O)N[C@@H]1C(=O)N(CCO)c2ccccc2-c2ccccc21)NCC(F)(F)C(F)(F)F` [Example 9, N—[(S)-5-(2-Hydroxy-ethyl)-6-oxo-6,7-dihydro-5H-dibenzo[b,d]azepin-7-yl]-N′-(2,2,3,3,3-pentafluoro-propyl)-malonamide] is 19 nM. On to `CC(C)OCCN1C(=O)[C@@H](NC(=O)C(C)(C)C(=O)NCC(F)(F)C(F)(F)F)c2ccccc2-c2ccccc21` [Example 70, N—[(S)-5-(2-Isopropoxy-ethyl)-6-oxo-6,7-dihydro-5H-dibenzo[b,d]azepin-7-yl]-2,2-dimethyl-N′-(2,2,3,3,3-pentafluoro-propyl)-malonamide], for which the IC50 in data set [1] is 7 nM. As to `C[C@H](OC(=O)NCCF)C(=O)N[C@@H]1C(=O)N(CCO)c2ccccc2-c2ccccc21` [Example 47, (2-Fluoro-ethyl)-carbamic acid (S)-1-[(S)-5-(2-hydroxy-ethyl)-6-oxo-6,7-dihydro-5H-dibenzo[b,d]azepin-7-ylcarbamoyl]-ethyl ester], the IC50 in data set [1] amounted to 755 nM. For the compound `CC(O)(C(=O)NCCC(F)(F)C(F)(F)F)C(=O)N[C@@H]1C(=O)N(CCOCc2ccccc2)c2ccccc2-c2ccccc21` (stereo partly drawn) [Example 55, N—[(S)-5-(2-Benzyloxy-ethyl)-6-oxo-6,7-dihydro-5H-dibenzo[b,d]azepin-7-yl]-2-hydroxy-2-methyl-N′-(3,3,4,4,4-pentafluoro-butyl)-malonamide], the IC50 in data set [1] was 12 nM. With `CC(C)(C(=O)NCC(F)(F)C(F)(F)F)C(=O)N[C@@H]1C(=O)N(CCOCc2ccccc2)c2ccccc2-c2ccccc21` [Example 4, N—[(S)-5-(2-Benzyloxy-ethyl)-6-oxo-6,7-dihydro-5H-dibenzo[b,d]azepin-7-yl]-2,2-dimethyl-N′-(2,2,3,3,3-pentafluoro-propyl)-malonamide], in data set [1], the IC50 amounted to 9 nM. As for `COCCN1C(=O)[C@@H](NC(=O)[C@@](C)(F)C(=O)NCC(F)(F)C(F)(F)F)c2ccccc2-c2ccccc21` [Example 32, (S)-2-Fluoro-N—[(S)-5-(2-methoxy-ethyl)-6-oxo-6,7-dihydro-5H-dibenzo[b,d]azepin-7-yl]-2-methyl-N′-(2,2,3,3,3-pentafluoro-propyl)-malonamide], the IC50 in data set [1] was 18 nM.

Turning to `COC(C(=O)NCC(F)(F)C(F)(F)F)C(=O)N[C@@H]1C(=O)N(CCOCc2ccccc2)c2ccccc2-c2ccccc21` (stereo partly drawn) [Example 10, N—[(S)-5-(2-Benzyloxy-ethyl)-6-oxo-6,7-dihydro-5H-dibenzo[b,d]azepin-7-yl]-2-methoxy-N′-(2,2,3,3,3-pentafluoro-propyl)-malonamide], the half-maximal inhibitory concentration (IC50) in data set [1] stood at 49 nM. The same measure, in the same setting: the figure for `CC(C)(C(=O)NCC(F)(F)C(F)(F)F)C(=O)N[C@@H]1C(=O)N(CC(O)C(F)(F)F)c2ccccc2-c2ccccc21` (stereo partly drawn) [Example 72, 2,2-Dimethyl-N—[(S)-6-oxo-5-(3,3,3-trifluoro-2-hydroxy-propyl)-6,7-dihydro-5H-dibenzo[b,d]azepin-7-yl]-N′-(2,2,3,3,3-pentafluoro-propyl)-malonamide] is 1 nM; for `COC(=O)CN1C(=O)[C@@H](NC(=O)C(C)C(=O)NCC(F)(F)C(F)(F)F)c2ccccc2-c2ccccc21` (stereo partly drawn) [Example 1, {(S)-6-Oxo-7-[2-(2,2,3,3,3-pentafluoro-propylcarbamoyl)-propionylamino]-6,7-dihydro-dibenzo[b,d]azepin-5-yl}-acetic acid methyl ester] it is 10 nM; for `O=C(CC(=O)N[C@@H]1C(=O)N(CCOCc2ccccc2)c2ccccc2-c2ccccc21)NCCC(F)(F)C(F)(F)F` [Example 29, N—[(S)-5-(2-Benzyloxy-ethyl)-6-oxo-6,7-dihydro-5H-dibenzo[b,d]azepin-7-yl]-N′-(3,3,4,4,4-pentafluoro-butyl)-malonamide] it is 18 nM. On the same count and under the same terms, the figure for `C[C@@](F)(C(=O)NCC(F)(F)C(F)(F)F)C(=O)N[C@@H]1C(=O)N(CCOCc2ccccc2)c2ccccc2-c2ccccc21` [Example 22, (R)—N—[(S)-5-(2-Benzyloxy-ethyl)-6-oxo-6,7-dihydro-5H-dibenzo[b,d]azepin-7-yl]-2-fluoro-2-methyl-N′-(2,2,3,3,3-pentafluoro-propyl)-malonamide] is 2 nM; for `C[C@H](OC(=O)NCCC(F)(F)F)C(=O)N[C@@H]1C(=O)N(CCOCc2ccccc2)c2ccccc2-c2ccccc21` [Example 35, (3,3,3-Trifluoro-propyl)-carbamic acid (S)-1-[(S)-5-(2-benzyloxy-ethyl)-6-oxo-6,7-dihydro-5H-dibenzo[b,d]azepin-7-ylcarbamoyl]-ethyl ester] it is 22 nM. As to `C[C@@](F)(C(=O)NCC(F)(F)F)C(=O)N[C@@H]1C(=O)N(CCO)c2ccccc2-c2ccccc21` [Example 53, (R)-2-Fluoro-N—[(S)-5-(2-hydroxy-ethyl)-6-oxo-6,7-dihydro-5H-dibenzo[b,d]azepin-7-yl]-2-methyl-N′-(2,2,2-trifluoro-ethyl)-malonamide], the IC50 in data set [1] came out at 9 nM. Consider `COCCN1C(=O)[C@@H](NC(=O)[C@H](C)OC(=O)NCC(F)(F)C(F)(F)F)c2ccccc2-c2ccccc21` [Example 25, (2,2,3,3,3-Pentafluoro-propyl)-carbamic acid (S)-1-[(S)-5-(2-methoxy-ethyl)-6-oxo-6,7-dihydro-5H-dibenzo[b,d]azepin-7-ylcarbamoyl]-ethyl ester], for which the IC50 in data set [1] was 6 nM. For the compound `CCOCCN1C(=O)[C@@H](NC(=O)C(C)(C)C(=O)NCC(F)(F)C(F)(F)F)c2ccccc2-c2ccccc21` [Example 71, N—[(S)-5-(2-Ethoxy-ethyl)-6-oxo-6,7-dihydro-5H-dibenzo[b,d]azepin-7-yl]-2,2-dimethyl-N′-(2,2,3,3,3-pentafluoro-propyl)-malonamide], the IC50 in data set [1] is 6 nM.
